Results published in article PMC8359193, “Summary of reference chemicals evaluated by the fish short‐term reproduction assay, OECD TG229, using Japanese Medaka, Oryzias latipes” (Journal of Applied Toxicology, 2021).
Entries after “also recorded” stand apart in the source; their conditions may differ.

Experiments:
[1] = tested on: Japanese medaka (Oryzias latipes); experiment: Fish short-term reproduction assay (FSTRA, OECD TG229), 21-day flow-through exposure; settings: for Fertility rate (%) / Mortality (%) Female / Mortality (%) Male / Number of fertilized eggs / Number of total eggs / SSC Female / SSC Male / VTG (ng/mg of liver) Female / VTG (ng/mg of liver) Male: 21 days; for GSI Female / GSI Male / HSI Female / HSI Male / Length Female / Length Male / Weight Female / Weight Male: at completion of exposure
In short: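 Japanese medaka (NIES-R strain, 16 ± 2 weeks old) were exposed in flow-through tanks for 3 weeks, three males and three females per tank, four replicate tanks per group, with a dilution water control. Concentrations were spaced by a factor of 2–5. Eggs were collected daily and counted as fertilized or unfertilized.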

[2] = target: medaka ARβ (mARβ) (Oryzias latipes, UniProt D1MV73); experiment: Medaka ARβ reporter gene assay (RGA), antagonist assay with 50 nM 11KT, HepG2 cells; type: cell-based, Japanese medaka (Oryzias latipes); settings: 50 nM 11KT-induced mARβ activity
Procedure: To support interpretation of the biological effects observed in the FSTRA studies, in vitro RGAs using medaka Esr1 (mEsr1) and medaka ARβ (mARβ) were performed for the 16 test chemicals. In the present study, Esr1 and ARβ, which are ancestral subtypes among Esrs and ARs in Japanese medaka, were selected based on the phylogenetical analyses of Esr and AR with each receptor RGAs (Ogino et al., [2016], [2018]; Tohyama et al., [2015]).
The mARβ RGA in which the agonist and the antagonist assays were performed as same as the mEsr1 RGA was carried out according to the methods previously reported by Lange et al. ([2015]). For the assays, human liver cancer cell line, HepG2, was used as the host cells, and mARβ/pcDNA3.1, MMTV‐Luc, and pRL‐TK‐Rlu were used as mARβ expression vector, reporter vector, and internal control vector, respectively. Other materials and methods, for example, operating procedure, reagents, and incubation conditions, were almost the same as the mEsr1 RGA previously described beside that 11KT (Sigma‐Aldrich, purity 99.0%), a main AR ligand in fish, was competitively spiked at 50 nM into the test medium with test chemicals in antagonist assay. In the agonist and the antagonist assays, 11KT and 2‐hydroxyflutamide (2HFLT; Sigma‐Aldrich, purity 98.5%) were used as positive controls, respectively.
Effect concentrations, that is, EC50 (a half maximal effective concentration) in the agonist assay and IC50 (a half maximal inhibitory concentration) in the antagonist assay, were estimated by nonlinear curve fitting (e.g., three parameters logistic regression curve) using GraphPad Prism (GraphPad Software Inc., La Jolla, CA, USA).

[3] = tested on: fathead minnow; set-up: method as in US EPA, 2007; settings: three participating laboratories; ref US EPA, 2007; cited from earlier work
[4] = tested on: Japanese medaka; settings: MMT, ref Flynn et al. (2017), cited from earlier work

Chain of medaka ARβ (mARβ) (D1MV73 entry or part of it): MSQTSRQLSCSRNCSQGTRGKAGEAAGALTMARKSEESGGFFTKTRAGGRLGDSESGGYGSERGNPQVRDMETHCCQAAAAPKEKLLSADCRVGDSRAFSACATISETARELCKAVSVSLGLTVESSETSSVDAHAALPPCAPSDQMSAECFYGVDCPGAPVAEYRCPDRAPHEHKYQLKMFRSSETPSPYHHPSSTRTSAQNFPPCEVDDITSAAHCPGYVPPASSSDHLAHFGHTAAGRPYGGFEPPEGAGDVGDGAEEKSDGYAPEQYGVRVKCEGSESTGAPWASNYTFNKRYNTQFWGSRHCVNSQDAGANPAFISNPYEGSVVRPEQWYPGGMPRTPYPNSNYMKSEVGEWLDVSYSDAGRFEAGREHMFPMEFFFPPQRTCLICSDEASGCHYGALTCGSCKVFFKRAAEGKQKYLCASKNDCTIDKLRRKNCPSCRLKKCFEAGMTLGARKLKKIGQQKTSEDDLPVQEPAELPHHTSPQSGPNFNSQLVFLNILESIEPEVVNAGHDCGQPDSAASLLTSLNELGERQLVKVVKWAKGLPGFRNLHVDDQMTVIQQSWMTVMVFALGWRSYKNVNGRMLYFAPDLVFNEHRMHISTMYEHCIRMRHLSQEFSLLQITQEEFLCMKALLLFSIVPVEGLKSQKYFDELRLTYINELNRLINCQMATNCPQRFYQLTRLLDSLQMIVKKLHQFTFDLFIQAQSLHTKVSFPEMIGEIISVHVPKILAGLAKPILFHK

C=CC1(C)OC(=O)N(c2cc(Cl)cc(Cl)c2)C1=O (centres unmarked) [VCZ, Vinclozolin]
effect on fertility rate, in words ([1]; 21-day exposure): significant decrease; also recorded: significant reduction
Fertility rate (%) ([1]; measured conc. 14.5 μg/L): 95%
Mortality (%) Female ([1]; measured conc. 14.5 μg/L): 0%
Mortality (%) Male ([1]; measured conc. 14.5 μg/L): 0%
Number of fertilized eggs ([1]; measured conc. 14.5 μg/L): 22
Number of total eggs ([1]; measured conc. 14.5 μg/L): 24 ± 2.6 /female/day
SSC Female ([1]; measured conc. 14.5 μg/L): 0 ± 0
SSC Male ([1]; measured conc. 14.5 μg/L): 108 ± 18
VTG (ng/mg of liver) Female ([1]; measured conc. 14.5 μg/L): 886 ± 300 ng/mg of liver
VTG (ng/mg of liver) Male ([1]; measured conc. 14.5 μg/L): 7.5 ± 7.2 ng/mg of liver
GSI Female ([1]; measured conc. 14.5 μg/L): 11.8%
GSI Male ([1]; measured conc. 14.5 μg/L): 1.09%
HSI Female ([1]; measured conc. 14.5 μg/L): 4.6%
HSI Male ([1]; measured conc. 14.5 μg/L): 1.7%
Length Female ([1]; measured conc. 14.5 μg/L): 35.2 mm
Length Male ([1]; measured conc. 14.5 μg/L): 34.8 mm
Weight Female ([1]; measured conc. 14.5 μg/L): 447 mg
Weight Male ([1]; measured conc. 14.5 μg/L): 455 mg
Fertility rate (%) ([1]; measured conc. 43.9 μg/L): 94%
Mortality (%) Female ([1]; measured conc. 43.9 μg/L): 0%
Mortality (%) Male ([1]; measured conc. 43.9 μg/L): 0%
Number of fertilized eggs ([1]; measured conc. 43.9 μg/L): 22
Number of total eggs ([1]; measured conc. 43.9 μg/L): 23 ± 5.3 /female/day
SSC Female ([1]; measured conc. 43.9 μg/L): 0 ± 0
SSC Male ([1]; measured conc. 43.9 μg/L): 95 ± 16
VTG (ng/mg of liver) Female ([1]; measured conc. 43.9 μg/L): 816 ± 278 ng/mg of liver
VTG (ng/mg of liver) Male ([1]; measured conc. 43.9 μg/L): 10 ± 12 ng/mg of liver
GSI Female ([1]; measured conc. 43.9 μg/L): 10.7%
GSI Male ([1]; measured conc. 43.9 μg/L): 1.24%
HSI Female ([1]; measured conc. 43.9 μg/L): 4.7%
HSI Male ([1]; measured conc. 43.9 μg/L): 1.7%
Length Female ([1]; measured conc. 43.9 μg/L): 35.0 mm
Length Male ([1]; measured conc. 43.9 μg/L): 34.4 mm
Weight Female ([1]; measured conc. 43.9 μg/L): 445 mg
Weight Male ([1]; measured conc. 43.9 μg/L): 427 mg
Fertility rate (%) ([1]; measured conc. 137 μg/L): 90%
Mortality (%) Female ([1]; measured conc. 137 μg/L): 0%
Mortality (%) Male ([1]; measured conc. 137 μg/L): 0%
Number of fertilized eggs ([1]; measured conc. 137 μg/L): 19
Number of total eggs ([1]; measured conc. 137 μg/L): 21 ± 4.3 /female/day
SSC Female ([1]; measured conc. 137 μg/L): 0 ± 0
SSC Male ([1]; measured conc. 137 μg/L): 108 ± 16
VTG (ng/mg of liver) Female ([1]; measured conc. 137 μg/L): 651 ± 217 ng/mg of liver
VTG (ng/mg of liver) Male ([1]; measured conc. 137 μg/L): 3.6 ± 2.3 ng/mg of liver
GSI Female ([1]; measured conc. 137 μg/L): 10.6%
GSI Male ([1]; measured conc. 137 μg/L): 1.40%
HSI Female ([1]; measured conc. 137 μg/L): 4.5%
HSI Male ([1]; measured conc. 137 μg/L): 1.5%
Length Female ([1]; measured conc. 137 μg/L): 34.8 mm
Length Male ([1]; measured conc. 137 μg/L): 34.4 mm
Weight Female ([1]; measured conc. 137 μg/L): 437 mg
Weight Male ([1]; measured conc. 137 μg/L): 425 mg
Fertility rate (%) ([1]; measured conc. 453 μg/L): 84%
Mortality (%) Female ([1]; measured conc. 453 μg/L): 0%
Mortality (%) Male ([1]; measured conc. 453 μg/L): 0%
Number of fertilized eggs ([1]; measured conc. 453 μg/L): 17
Number of total eggs ([1]; measured conc. 453 μg/L): 20 ± 5.9 /female/day
SSC Female ([1]; measured conc. 453 μg/L): 0 ± 0
SSC Male ([1]; measured conc. 453 μg/L): 102 ± 17
VTG (ng/mg of liver) Female ([1]; measured conc. 453 μg/L): 111 ± 92 ng/mg of liver
VTG (ng/mg of liver) Male ([1]; measured conc. 453 μg/L): 3.9 ± 8.6 ng/mg of liver
GSI Female ([1]; measured conc. 453 μg/L): 12.0%
GSI Male ([1]; measured conc. 453 μg/L): 1.46%
HSI Female ([1]; measured conc. 453 μg/L): 4.7%
HSI Male ([1]; measured conc. 453 μg/L): 1.8%
Length Female ([1]; measured conc. 453 μg/L): 34.8 mm
Length Male ([1]; measured conc. 453 μg/L): 34.9 mm
Weight Female ([1]; measured conc. 453 μg/L): 455 mg
Weight Male ([1]; measured conc. 453 μg/L): 455 mg
effect on fecundity (number of total eggs), in words ([1]; within the test concentrations, 21-day exposure): No effect
mARβ antagonist activity (in words) [2]: inhibited
nominal concentration with significant decrease in nuptial tubercle number in males [3]: 900 µg/L
LOEC on SSC in females [4]: 33 µg/L
LOEC on reproduction (fecundity and/or fertility) ([4]; long-term exposure): 253 µg/L
